In patent US10112941B2, “Tricyclic compounds as anticancer agents” (BRISTOL-MYERS SQUIBB COMPANY, priority 2013, dated 2018):

These molecules were tested against BRD4 (Homo sapiens, UniProt O60885) (assay: Time Resolved Fluorescence Resonance Energy Transfer (TR-FRET) binding assay, BRD4). Conditions: one of the FRET assays described; read-out: FRET BRD4 IC50.
Cc1n[nH]cc1-c1cnc2c3ccc(S(C)(=O)=O)cc3n([C@H](c3ccccc3)C3CCOCC3)c2c1 [Example 455, 4-{7-Methanesulfonyl-5-[(S)-oxan-4-yl(phenyl)methyl]-5H-pyrido[3,2-b]indol-3-yl}-3-methyl-1H-pyrazole] showed an IC50 of less than 25 nM. In the case of [2H]C([2H])([2H])c1nnn(C)c1-c1cnc2c3c(OC)cc(S(C)(=O)=O)cc3n([C@H](c3ccccc3)C3CCOCC3)c2c1 [Example 197, 5-{7-Methanesulfonyl-9-methoxy-5-[(S)-oxan-4-yl(phenyl)methyl]-5H-pyrido[3,2-b]indol-3-yl}-4-(^2H3)methyl-1-methyl-1H-1,2,3-triazole], the IC50 is reported as less than 5 nM. With Cc1noc(C)c1-c1cnc2c3ccc(C(C)(C)O)cc3n([C@H](c3ccccc3)C3CC3)c2c1 [Example 11] the IC50 was less than 25 nM. [2H]C([2H])([2H])c1nnn(C)c1-c1cnc2c3ccc(C(C)(O)C4CC4)c(F)c3n([C@H](c3ccccc3F)C3CCOCC3)c2c1 (stereo partly drawn) [Example 437, 1-Cyclopropyl-1-{6-fluoro-5-[(S)-(2-fluorophenyl)(oxan-4-yl)methyl]-3-[4-(^2H3)methyl-1-methyl-1H-1,2,3-triazol-5-yl]-5H-pyrido[3,2-b]indol-7-yl}ethan-1-ol] gave an IC50 of less than 5 nM. Molecule Cc1nnn(C)c1-c1cnc2c3ccc(C(C)(C)O)cc3n(C(c3cccc(F)c3F)C3CCOCC3)c2c1 (single isomer, unassigned) [Example 94, 2-{5-[(2,3-Difluorophenyl)(oxan-4-yl)methyl]-3-(dimethyl-1H-1,2,3-triazol-5-yl)-5H-pyrido[3,2-b]indol-7-yl}propan-2-ol] has an IC50 of less than 5 nM. In the case of [2H]C([2H])([2H])c1nnn(C)c1-c1cnc2c3c(F)cc(S(C)(=O)=O)cc3n(C(c3ccccc3)C3CCC(F)(F)CC3)c2c1 (single isomer, unassigned) [Example 199, 5-{5-[(4,4-Difluorocyclohexyl)(phenyl)methyl]-9-fluoro-7-methanesulfonyl-5H-pyrido[3,2-b]indol-3-yl}-4-(^2H3)methyl-1-methyl-1H-1,2,3-triazole], the IC50 is reported as less than 5 nM. Cn1nnc(Br)c1-c1cnc2c3cc(Br)c(C(C)(C)O)cc3n([C@H](c3ccccc3)C3CCOCC3)c2c1 [Example 383, 2-[8-Bromo-3-(4-bromo-1-methyl-1H-1,2,3-triazol-5-yl)-5-[(S)-oxan-4-yl(phenyl)methyl]-5H-pyrido[3,2-b]indol-7-yl]propan-2-ol] was tested, and the IC50 was less than 5 nM. With Cc1nnn(C)c1-c1cnc2c3cc(F)c(C(C)(O)C4CC4)cc3n([C@H](c3ccccc3F)C3CCOCC3)c2c1 (single isomer, unassigned) [Example 448] the IC50 was less than 5 nM. [2H]C([2H])([2H])c1nnn(C)c1-c1cnc2c3c(F)ccc(S(C)(=O)=O)c3n([C@H](c3ccccc3)C3CCOCC3)c2c1 [Example 221, 5-{9-Fluoro-6-methanesulfonyl-5-[(S)-oxan-4-yl(phenyl)methyl]-5H-pyrido[3,2-b]indol-3-yl}-4-(^2H3)methyl-1-methyl-1H-1,2,3-triazole] showed an IC50 of less than 5 nM. Molecule Cc1nnn(C)c1-c1cnc2c3cc(C(=O)N4CC(C)(O)C4)ccc3n([C@H](c3ccccc3)C3CCOCC3)c2c1 [Example 427, 1-[3-(Dimethyl-1H-1,2,3-triazol-5-yl)-5-[(S)-oxan-4-yl(phenyl)methyl]-5H-pyrido[3,2-b]indole-8-carbonyl]-3-methylazetidin-3-ol] has an IC50 of less than 5 nM. [2H]C([2H])([2H])c1nnn(C)c1-c1cnc2c3ccc(C(C)(C)O)cc3n([C@H](c3ccccc3)C3CCOCC3)c2c1 [Example 262, 2-{3-[4-(^2H3)Methyl-1-methyl-1H-1,2,3-triazol-5-yl]-5-[(S)-oxan-4-yl(phenyl)methyl]-5H-pyrido[3,2-b]indol-7-yl}propan-2-ol] showed an IC50 of less than 5 nM. Cc1noc(C)c1-c1cnc2c3ccc(C(C)(C)O)cc3n(C(c3ccccc3)C3CCC(F)(F)CC3)c2c1 (single isomer, unassigned) [Example 28, 2-{5-[(4,4-Difluorocyclohexyl)(phenyl)methyl]-3-(dimethyl-1,2-oxazol-4-yl)-5H-pyrido[3,2-b]indol-7-yl}propan-2-ol] gave an IC50 of less than 5 nM. Molecule [2H]C([2H])([2H])Oc1nnn(C([2H])([2H])[2H])c1-c1cnc2c3ccc(C(C)(C)O)cc3n([C@H](c3ccccc3)C3CCOCC3)c2c1 [Example 380, 2-{3-[4-(^2H3)Methoxy-1-(^2H3)methyl-1H-1,2,3-triazol-5-yl]-5-[(S)-oxan-4-yl(phenyl)methyl]-5H-pyrido[3,2-b]indol-7-yl}propan-2-ol] has an IC50 of less than 5 nM. [2H]C([2H])([2H])c1nnn(C)c1-c1cnc2c3c(OCC(C)(F)F)ccc(S(C)(=O)=O)c3n(C(c3ncccc3F)C3CCOCC3)c2c1 (centres unmarked) [Example 248, 2-{[9-(2,2-Difluoropropoxy)-6-methanesulfonyl-3-[4-(^2H3)methyl-1-methyl-1H-1,2,3-triazol-5-yl]-5H-pyrido[3,2-b]indol-5-yl](oxan-4-yl)methyl}-3-fluoropyridine] was tested, and the IC50 was less than 1500 nM. Work on Cc1noc(C)c1-c1cnc2c3ccc(S(C)(=O)=O)cc3n(C(c3ccccc3)C3CCC(F)(F)CC3)c2c1 (single isomer, unassigned) [Example 155, 4-{5-[(4,4-Difluorocyclohexyl)(phenyl)methyl]-7-methanesulfonyl-5H-pyrido[3,2-b]indol-3-yl}-3,5-dimethyl-1,2-oxazole] yielded an IC50 of less than 25 nM. For Cc1nnn(C)c1-c1cnc2c3ccc(C(C)(C)F)cc3n([C@H](c3ccccc3)C3CCOCC3)c2c1 [Example 351, 5-[7-(2-Fluoropropan-2-yl)-5-[(S)-oxan-4-yl(phenyl)methyl]-5H-pyrido[3,2-b]indol-3-yl]-1,4-dimethyl-1H-1,2,3-triazole], the IC50 was less than 5 nM. With Cc1noc(C)c1-c1cnc2c3ccc(S(C)(=O)=O)cc3n(C(c3ccccc3)C3CCC(F)(F)CC3)c2c1 (single isomer, unassigned) [Example 154, 4-{5-[(4,4-Difluorocyclohexyl)(phenyl)methyl]-7-methanesulfonyl-5H-pyrido[3,2-b]indol-3-yl}-3,5-dimethyl-1,2-oxazole] the IC50 was less than 25 nM. For Cc1nnn(C)c1-c1cnc2c3c(S(C)(=O)=O)cccc3n(C(c3ccccc3F)C3CCOCC3)c2c1 (single isomer, unassigned) [Example 116, 5-{5-[(2-Fluorophenyl)(oxan-4-yl)methyl]-9-methanesulfonyl-5H-pyrido[3,2-b]indol-3-yl}-1,4-dimethyl-1H-1,2,3-triazole], the IC50 was less than 25 nM. With [2H]C([2H])([2H])c1nnn(C)c1-c1cnc2c3ccc(C(C)(C)O)cc3n(C(c3cc(Cl)ccn3)C3CCOCC3)c2c1 (single isomer, unassigned) [Example 457] the IC50 was less than 5 nM. Work on [2H]C([2H])([2H])c1nnn(C)c1-c1cnc2c3c(OCC)cc(S(C)(=O)=O)cc3n(C(c3ccccc3)C3CCC(F)(F)CC3)c2c1 [Example 209, 5-{5-[(S)-(4,4-Difluorocyclohexyl)(phenyl)methyl]-9-ethoxy-7-methanesulfonyl-5H-pyrido[3,2-b]indol-3-yl}-4-(^2H3)methyl-1-methyl-1H-1,2,3-triazole] yielded an IC50 of less than 5 nM. In the case of Cc1nnn(C)c1-c1cnc2c3ccc(C(C)(C)O)cc3n(C(c3ccc(F)c(F)c3)C3CCOCC3)c2c1 (single isomer, unassigned) [Example 97, 2-{5-[(3,4-Difluorophenyl)(oxan-4-yl)methyl]-3-(dimethyl-1H-1,2,3-triazol-5-yl)-5H-pyrido[3,2-b]indol-7-yl}propan-2-ol], the IC50 is reported as less than 5 nM. In the case of Cc1nnn(C)c1-c1cnc2c3ccc(C(C)(C)O)c(F)c3n(C(c3ccncc3F)C3CCOCC3)c2c1 (single isomer, unassigned) [Example 288], the IC50 is reported as less than 5 nM. Cc1nnn(C)c1-c1cnc2c3c(S(C)(=O)=O)cccc3n(C(c3ccccc3F)C3CCOCC3)c2c1 (single isomer, unassigned) [Example 115, 5-{5-[(2-Fluorophenyl)(oxan-4-yl)methyl]-9-methanesulfonyl-5H-pyrido[3,2-b]indol-3-yl}-1,4-dimethyl-1H-1,2,3-triazole] gave an IC50 of less than 5 nM. Cc1cccnc1C(C1CCOCC1)n1c2cc(C(C)(C)O)ccc2c2ncc(-c3c(C)nnn3C)cc21 (single isomer, unassigned) [Example 302] was tested, and the IC50 was less than 5 nM. Molecule Cc1nnn(C)c1-c1cnc2c3ccc(C(C)(C)O)cc3n(C(CC3CC3)C3CCOCC3)c2c1 (single isomer, unassigned) [Example 394] has an IC50 of less than 5 nM. In the case of Cc1noc(C)c1-c1cnc2c3ccc(C(C)(C)O)cc3n(C(CCC(F)(F)F)c3cocn3)c2c1 (single isomer, unassigned) [Example 35, 2-[3-(Dimethyl-1,2-oxazol-4-yl)-5-[4,4,4-trifluoro-1-(1,3-oxazol-4-yl)butyl]-5H-pyrido[3,2-b]indol-7-yl]propan-2-ol], the IC50 is reported as less than 25 nM. Cc1noc(C)c1-c1cnc2c3ccc(C(O)CC#N)cc3n([C@H](c3ccccc3)C3CCOCC3)c2c1 (single isomer, unassigned) [Example 373] was tested, and the IC50 was less than 5 nM. With [2H]C([2H])([2H])c1nnn(C)c1-c1cnc2c3ccc(S(C)(=O)=O)cc3n(C(c3ncccc3F)C3CCC(F)(F)CC3)c2c1 (centres unmarked) [Example 240, 2-[(4,4-Difluorocyclohexyl)({7-methanesulfonyl-3-[4-(^2H3)methyl-1-methyl-1H-1,2,3-triazol-5-yl]-5H-pyrido[3,2-b]indol-5-yl})methyl]-3-fluoropyridine] the IC50 was less than 5 nM. With COc1ccc(C(C2CCOCC2)n2c3cc(C(C)(C)O)ccc3c3ncc(-c4c(C)nnn4C)cc32)cc1 (single isomer, unassigned) [Example 249, 2-[3-(Dimethyl-1H-1,2,3-triazol-5-yl)-5-[(4-methoxyphenyl)(oxan-4-yl)methyl]-5H-pyrido[3,2-b]indol-7-yl]propan-2-ol] the IC50 was less than 5 nM. For Cc1nnn(C)c1-c1cnc2c3ccc(C(C)(O)C4CC4)c(F)c3n([C@H](c3ccccc3F)C3CCOCC3)c2c1 (single isomer, unassigned) [Example 435], the IC50 was less than 5 nM. Cc1nnn(C)c1-c1cnc2c3ccc(C(C)(C)O)cc3n(C(c3ncccc3Cl)C3CCOCC3)c2c1 (single isomer, unassigned) [Example 304] gave an IC50 of less than 5 nM. Molecule Cc1nnn(C)c1-c1cnc2c3ccc(C4(O)CC4)cc3n([C@H](c3ccccc3)C3CCOCC3)c2c1 [Example 419, 1-[3-(Dimethyl-1H-1,2,3-triazol-5-yl)-5-[(S)-oxan-4-yl(phenyl)methyl]-5H-pyrido[3,2-b]indol-7-yl]cyclopropan-1-ol] has an IC50 of less than 5 nM.
